According to US12202835B2, “Substituted aromatic ring-linked dioxinoquinazolines and dioxinoquinolines as kinase inhibitors” (BEIJING SCITECH-MQ PHARMACEUTICALS LIMITED, priority 2018, dated 2025):

Assays:
[1] = molecular target: c-MET kinase (Homo sapiens (Human), UniProt P08581); assay: Assay of small molecular compounds for inhibiting the activity of c-MET kinase (LANCE TR-FRET); type: biochemical; conditions: read-out: CMET IC50
Summary of the method: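 Eleven final concentrations from 2500 nM down to 0.042 nM, in 4% DMSO, were tested against human c-MET (2× stock 2 nM), with compound and enzyme premixed for 5 min. The phosphorylation reaction used 4× stock of 400 nM ULight-JAK-1 peptide and 40 μM ATP for 60 min at room temperature, then stop and detection steps. TR-FRET percent inhibition against positive and negative controls gave the IC50.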

[2] = molecular target: VEGFR-2 kinase (Homo sapiens (Human), UniProt P35968); assay: Assay of small molecular compounds for inhibiting the activity of VEGFR-2 kinase (LANCE TR-FRET); type: biochemical; conditions: read-out: VEGFR2 IC50
Summary of the method: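 LANCE TR-FRET with human VEGFR-2 (2× stock 0.5 nM) preincubated 30 min with compound (final 2500 to 0.042 nM, 11-point 3-fold), then ULight-JAK-1 (Tyr1023) peptide/ATP added (4× stocks 200 nM/40 μM). Reaction 60 min room temperature, 4% DMSO; IC50 from inhibition-rate curve.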

[3] = tested on: EBC1 cells; assay: Assay for inhibiting the proliferation of EBC1 cells (CCK-8); type: cell-based; conditions: Homo sapiens, EBC-1
Summary of the method: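 Cells seeded in 96-well plates overnight, then exposed 72 h to 9 three-fold dilutions of compound (0.25% DMSO final). Viability by CCK-8 (1-2 h at 37° C., OD 450 nm), survival normalized to untreated and cell-free blanks; IC50 by curve fitting.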

Chain of VEGFR-2 kinase (P35968 20-1356): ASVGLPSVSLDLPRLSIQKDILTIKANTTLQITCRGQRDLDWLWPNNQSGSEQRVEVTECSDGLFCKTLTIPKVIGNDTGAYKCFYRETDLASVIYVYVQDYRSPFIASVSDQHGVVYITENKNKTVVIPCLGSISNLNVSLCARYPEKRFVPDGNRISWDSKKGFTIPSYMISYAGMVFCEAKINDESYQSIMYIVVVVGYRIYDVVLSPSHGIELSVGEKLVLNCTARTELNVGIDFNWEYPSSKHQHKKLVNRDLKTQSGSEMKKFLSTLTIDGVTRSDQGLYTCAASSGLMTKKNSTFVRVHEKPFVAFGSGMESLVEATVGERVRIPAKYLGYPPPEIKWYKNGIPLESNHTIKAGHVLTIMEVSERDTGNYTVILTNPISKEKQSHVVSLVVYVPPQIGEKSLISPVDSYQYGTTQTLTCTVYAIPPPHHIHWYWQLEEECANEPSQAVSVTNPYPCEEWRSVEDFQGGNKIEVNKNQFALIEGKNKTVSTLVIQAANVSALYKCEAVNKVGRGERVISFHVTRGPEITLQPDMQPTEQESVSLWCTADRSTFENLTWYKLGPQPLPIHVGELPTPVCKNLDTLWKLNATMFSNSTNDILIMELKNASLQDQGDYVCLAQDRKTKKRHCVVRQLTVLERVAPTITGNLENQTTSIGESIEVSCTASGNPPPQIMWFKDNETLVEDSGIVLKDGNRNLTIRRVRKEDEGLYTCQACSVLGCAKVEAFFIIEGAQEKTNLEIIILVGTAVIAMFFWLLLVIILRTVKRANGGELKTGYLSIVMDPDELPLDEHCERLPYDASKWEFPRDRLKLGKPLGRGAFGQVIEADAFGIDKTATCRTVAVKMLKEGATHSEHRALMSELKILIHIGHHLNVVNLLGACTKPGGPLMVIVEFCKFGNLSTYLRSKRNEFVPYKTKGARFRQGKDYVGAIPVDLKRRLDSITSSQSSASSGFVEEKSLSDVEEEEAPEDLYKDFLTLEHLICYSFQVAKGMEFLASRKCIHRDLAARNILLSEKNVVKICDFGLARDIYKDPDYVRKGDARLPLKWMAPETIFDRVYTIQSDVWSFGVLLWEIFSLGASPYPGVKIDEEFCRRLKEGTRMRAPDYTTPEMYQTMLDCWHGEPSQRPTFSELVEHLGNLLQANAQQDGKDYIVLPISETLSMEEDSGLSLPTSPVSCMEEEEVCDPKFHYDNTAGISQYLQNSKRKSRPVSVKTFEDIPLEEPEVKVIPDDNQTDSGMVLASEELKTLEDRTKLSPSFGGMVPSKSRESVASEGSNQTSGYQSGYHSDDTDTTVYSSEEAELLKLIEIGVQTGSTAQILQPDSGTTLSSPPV
Chain of c-MET kinase (P08581 25-1390): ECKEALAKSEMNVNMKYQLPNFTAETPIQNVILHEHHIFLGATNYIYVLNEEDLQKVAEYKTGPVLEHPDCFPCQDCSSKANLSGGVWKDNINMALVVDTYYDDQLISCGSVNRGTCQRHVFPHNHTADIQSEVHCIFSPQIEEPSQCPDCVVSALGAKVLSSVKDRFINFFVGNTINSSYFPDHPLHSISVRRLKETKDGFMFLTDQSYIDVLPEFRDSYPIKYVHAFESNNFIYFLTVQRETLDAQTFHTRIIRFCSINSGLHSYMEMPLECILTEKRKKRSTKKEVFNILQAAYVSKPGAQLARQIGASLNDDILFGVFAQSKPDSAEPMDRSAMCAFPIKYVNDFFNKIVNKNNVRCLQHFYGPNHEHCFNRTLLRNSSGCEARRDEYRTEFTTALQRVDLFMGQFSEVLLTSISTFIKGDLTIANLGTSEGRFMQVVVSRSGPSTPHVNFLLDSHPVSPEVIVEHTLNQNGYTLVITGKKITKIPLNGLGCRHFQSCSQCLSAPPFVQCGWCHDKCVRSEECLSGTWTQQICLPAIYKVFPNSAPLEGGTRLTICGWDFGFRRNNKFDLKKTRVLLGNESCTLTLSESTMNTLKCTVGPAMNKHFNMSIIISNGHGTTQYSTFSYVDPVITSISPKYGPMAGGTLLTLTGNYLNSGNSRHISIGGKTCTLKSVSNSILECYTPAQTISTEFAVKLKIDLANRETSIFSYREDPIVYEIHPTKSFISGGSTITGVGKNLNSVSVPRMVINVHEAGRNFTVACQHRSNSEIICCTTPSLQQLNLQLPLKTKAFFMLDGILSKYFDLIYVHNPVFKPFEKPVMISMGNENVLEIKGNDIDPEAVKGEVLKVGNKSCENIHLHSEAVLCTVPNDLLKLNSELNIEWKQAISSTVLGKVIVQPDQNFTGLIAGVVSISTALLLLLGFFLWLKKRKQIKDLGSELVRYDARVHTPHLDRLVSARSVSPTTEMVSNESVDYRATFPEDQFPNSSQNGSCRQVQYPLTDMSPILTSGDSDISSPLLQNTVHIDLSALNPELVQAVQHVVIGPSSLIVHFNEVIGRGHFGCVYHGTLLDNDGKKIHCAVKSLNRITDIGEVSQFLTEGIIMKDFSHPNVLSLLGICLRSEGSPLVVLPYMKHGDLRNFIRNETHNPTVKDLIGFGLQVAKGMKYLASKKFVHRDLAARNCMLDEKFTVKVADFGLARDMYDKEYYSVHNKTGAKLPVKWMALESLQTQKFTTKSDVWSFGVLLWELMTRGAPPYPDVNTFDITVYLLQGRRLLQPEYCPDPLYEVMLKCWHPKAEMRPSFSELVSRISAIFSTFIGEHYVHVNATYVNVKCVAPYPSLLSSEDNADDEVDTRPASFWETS

IC50 [1] [nM] | IC50 [2] [nM] | SMILES | IC50 [3] [nM]
50 to 500 | 500 to 5000 | CC(C)n1cc(C(=O)Nc2ccc(Oc3ccnc4cc(OCCCN5CCC(C)(C)CC5)c5c(c34)OCCO5)c(F)c2)c(=O)n(-c2ccc(F)cc2)c1=O [Example 92, N-(3-fluoro-4-((5-(3-(4,4-dimethylpiperidin-1-yl)propoxy)-2,3-dihydro-[1,4]dioxino[2,3-f]quinolin-10-yl)oxy)phenyl)-3-(4-fluorophenyl)-1-isopropyl-2,4-dioxo-1,2,3,4-tetrahydropyrimidine-5-carboxamide] | 
≤ 50 | 50 to 500 | CCOc1ccn(-c2ccc(F)cc2)c(=O)c1C(=O)Nc1ccc(Oc2ccnc3cc(OCC#N)c4c(c23)OCCO4)c(F)c1 [Example 56, N-(4-((5-(cyanomethoxy)-2,3-dihydro-[1,4]dioxino[2,3-f]quinolin-10-yl)oxy)-3-fluorophenyl)-4-ethoxy-1-(4-fluorophenyl)-2-oxo-1,2-dihydropyridine-3-carboxamide] | ≤ 50
50 to 500 | 500 to 5000 | CC(C)n1cc(C(=O)Nc2ccc(Oc3ccnc4cc(OCCCN5CCS(=O)(=O)CC5)c5c(c34)OCCO5)c(F)c2)c(=O)n(-c2ccc(F)cc2)c1=O [Example 76, N-(3-fluoro-4-((5-(3-(1,1-dioxidothiomorpholino)propoxy)-2,3-dihydro-[1,4]dioxino[2,3-f]quinolin-10-yl)oxy)phenyl)-3-(4-fluorophenyl)-1-isopropyl-2,4-dioxo-1,2,3,4-tetrahydropyrimidine-5-carboxamide] | 
≤ 50 | 500 to 5000 | CC(C)n1cc(C(=O)Nc2ccc(Oc3ccnc4cc(OCCO)c5c(c34)OCCO5)c(F)c2)c(=O)n(-c2ccc(F)cc2)c1=O [Example 78, N-(3-fluoro-4-((5-(2-hydroxyethoxy)-2,3-dihydro-[1,4]dioxino[2,3-f]quinolin-10-yl)oxy)phenyl)-3-(4-fluorophenyl)-1-isopropyl-2,4-dioxo-1,2,3,4-tetrahydropyrimidine-5-carboxamide] | 
≤ 50 | ≤ 50 | CCOc1ccn(-c2ccc(F)cc2)c(=O)c1C(=O)Nc1ccc(Oc2ccnc3cc(OCC4CC4)c4c(c23)OCCO4)c(F)c1 [Example 59, N-(4-((5-(cyclopropylmethoxy)-2,3-dihydro-[1,4]dioxino[2,3-f]quinolin-10-yl)oxy)-3-fluorophenyl)-4-ethoxy-1-(4-fluorophenyl)-2-oxo-1,2-dihydropyridine-3-carboxamide] | 
≤ 50 | 50 to 500 | CC(C)n1cc(C(=O)Nc2ccc(Oc3ccnc4cc(OCCCN5CCC(C)(N)CC5)c5c(c34)OCCO5)c(F)c2)c(=O)n(-c2ccc(F)cc2)c1=O [Example 93, N-(3-fluoro-4-((5-(3-(4-amino-4-methylpiperidin-1-yl)propoxy)-2,3-dihydro-[1,4]dioxino[2,3-f]quinolin-10-yl)oxy)phenyl)-3-(4-fluorophenyl)-1-isopropyl-2,4-dioxo-1,2,3,4-tetrahydropyrimidine-5-carboxamide] | 
≤ 50 |  | COCCOc1cc2nccc(Oc3ccc(NC(=O)c4cn(C(C)C)c(=O)n(-c5ccc(F)cc5)c4=O)cc3F)c2c2c1OCCO2 [Example 43, N-(3-fluoro-4-((5-(2-methoxyethoxy)-2,3-dihydro-[1,4]dioxino[2,3-f]quinolin-10-yl)oxy)phenyl)-3-(4-fluorophenyl)-1-isopropyl-2,4-dioxo-1,2,3,4-tetrahydropyrimidine-5-carboxamide] | 
≤ 50 |  | CC(=O)N1CCN(CCCOc2cc3nccc(Oc4ccc(NC(=O)c5cn(C(C)C)c(=O)n(-c6ccc(F)cc6)c5=O)cc4F)c3c3c2OCCO3)CC1 [Example 75, N-(3-fluoro-4-((5-(3-(4-acetylpiperazin-1-yl)propoxy)-2,3-dihydro-[1,4]dioxino[2,3-f]quinolin-10-yl)oxy)phenyl)-3-(4-fluorophenyl)-1-isopropyl-2,4-dioxo-1,2,3,4-tetrahydropyrimidine-5-carboxamide] | 
≤ 50 | 50 to 500 | Cn1cc(C(=O)Nc2ccc(Oc3ccnc4cc(OC5CCOC5)c5c(c34)OCCO5)c(F)c2)c(=O)n(-c2ccc(F)cc2)c1=O (stereo not shown) [Example 90, N-(3-fluoro-4-((5-((tetrahydrofuran-3-yl)oxy)-2,3-dihydro-[1,4]dioxino[2,3-f]quinolin-10-yl)oxy)phenyl)-3-(4-fluorophenyl)-1-methyl-2,4-dioxo-1,2,3,4-tetrahydropyrimidine-5-carboxamide] | 
≤ 50 | 50 to 500 | Cn1cc(C(=O)Nc2ccc(Oc3ccnc4cc(OC5CCOCC5)c5c(c34)OCCO5)c(F)c2)c(=O)n(-c2ccc(F)cc2)c1=O [Example 91, N-(3-fluoro-4-((5-((tetrahydropyran-4-yl)oxy)-2,3-dihydro-[1,4]dioxino[2,3-f]quinolin-10-yl)oxy)phenyl)-3-(4-fluorophenyl)-1-methyl-2,4-dioxo-1,2,3,4-tetrahydropyrimidine-5-carboxamide] | 
≤ 50 | 500 to 5000 | CC(C)Oc1cc2nccc(Oc3ccc(NC(=O)c4cn(C)c(=O)n(-c5ccc(F)cc5)c4=O)cc3F)c2c2c1OCCO2 [Example 88, N-(3-fluoro-4-((5-isopropoxy-2,3-dihydro-[1,4]dioxino[2,3-f]quinolin-10-yl)oxy)phenyl)-3-(4-fluorophenyl)-1-methyl-2,4-dioxo-1,2,3,4-tetrahydropyrimidine-5-carboxamide] | 
≤ 50 | 50 to 500 | CC(C)n1cc(C(=O)Nc2ccc(Oc3ccnc4cc(OCCCN5CCCC5)c5c(c34)OCCO5)c(F)c2)c(=O)n(-c2ccc(F)cc2)c1=O [Example 77, N-(3-fluoro-4-((5-(3-(pyrrolidin-1-yl)propoxy)-2,3-dihydro-[1,4]dioxino[2,3-f]quinolin-10-yl)oxy)phenyl)-3-(4-fluorophenyl)-1-isopropyl-2,4-dioxo-1,2,3,4-tetrahydropyrimidine-5-carboxamide] | 
≤ 50 | ≤ 50 | CCOc1ccn(-c2ccc(F)cc2)c(=O)c1C(=O)Nc1ccc(Oc2ccnc3cc(OCC(C)C)c4c(c23)OCCO4)c(F)c1 [Example 58, N-(4-((5-(isobutyloxy)-2,3-dihydro-[1,4]dioxino[2,3-f]quinolin-10-yl)oxy)-3-fluorophenyl)-4-ethoxy-1-(4-fluorophenyl)-2-oxo-1,2-dihydropyridine-3-carboxamide] | 
≤ 50 | ≤ 50 | CCOc1ccn(-c2ccc(F)cc2)c(=O)c1C(=O)Nc1ccc(Oc2ccnc3cc(OCCCN4CCCC4)c4c(c23)OCCO4)c(F)c1 [Example 52, N-(4-((5-(3-(pyrrolidin-1-yl)propoxy)-2,3-dihydro-[1,4]dioxino[2,3-f]quinolin-10-yl)oxy)-3-fluorophenyl)-4-ethoxy-1-(4-fluorophenyl)-2-oxo-1,2-dihydropyridine-3-carboxamide] | 
≤ 50 |  | CC(C)n1cc(C(=O)Nc2ccc(Oc3ccnc4cc(OCCCO)c5c(c34)OCCO5)c(F)c2)c(=O)n(-c2ccc(F)cc2)c1=O [Example 79, N-(3-fluoro-4-((5-(3-hydroxypropoxy)-2,3-dihydro-[1,4]dioxino[2,3-f]quinolin-10-yl)oxy)phenyl)-3-(4-fluorophenyl)-1-isopropyl-2,4-dioxo-1,2,3,4-tetrahydropyrimidine-5-carboxamide] | 
